Source: US20180008587A1, “THIOHYDANTOIN ANDROGEN RECEPTOR ANTAGONISTS FOR THE TREATMENT OF CANCER” (Jaressen Pharmaceutica NV, priority 2016, published 2018)
Numbering of substitutions follows the chain as printed. Like-named read-outs stand apart in the source and are kept apart here.

Key:
Format in all cases: cell-based
[1] = molecular target: T1, wild-type Androgen Receptor (AR-wt) (Homo sapiens, UniProt P10275); experiment: LNCaP-AR-wt ANT reporter assay (ARE firefly luciferase, antagonist mode); conditions: for IC50: antagonist mode, 400 pM R-1881 challenge, −Log10(IC50 [Molar]), read-out: LNCaP-AR-wt ANT pIC50 (converted); for Emax: read-out: LNCaP-AR-wt ANT MAX % Inh
T1 construct: expressed in transfected cells; host or cells: LNCaP (LNCaP AR (cs))
T1 sequence (P10275 1-920): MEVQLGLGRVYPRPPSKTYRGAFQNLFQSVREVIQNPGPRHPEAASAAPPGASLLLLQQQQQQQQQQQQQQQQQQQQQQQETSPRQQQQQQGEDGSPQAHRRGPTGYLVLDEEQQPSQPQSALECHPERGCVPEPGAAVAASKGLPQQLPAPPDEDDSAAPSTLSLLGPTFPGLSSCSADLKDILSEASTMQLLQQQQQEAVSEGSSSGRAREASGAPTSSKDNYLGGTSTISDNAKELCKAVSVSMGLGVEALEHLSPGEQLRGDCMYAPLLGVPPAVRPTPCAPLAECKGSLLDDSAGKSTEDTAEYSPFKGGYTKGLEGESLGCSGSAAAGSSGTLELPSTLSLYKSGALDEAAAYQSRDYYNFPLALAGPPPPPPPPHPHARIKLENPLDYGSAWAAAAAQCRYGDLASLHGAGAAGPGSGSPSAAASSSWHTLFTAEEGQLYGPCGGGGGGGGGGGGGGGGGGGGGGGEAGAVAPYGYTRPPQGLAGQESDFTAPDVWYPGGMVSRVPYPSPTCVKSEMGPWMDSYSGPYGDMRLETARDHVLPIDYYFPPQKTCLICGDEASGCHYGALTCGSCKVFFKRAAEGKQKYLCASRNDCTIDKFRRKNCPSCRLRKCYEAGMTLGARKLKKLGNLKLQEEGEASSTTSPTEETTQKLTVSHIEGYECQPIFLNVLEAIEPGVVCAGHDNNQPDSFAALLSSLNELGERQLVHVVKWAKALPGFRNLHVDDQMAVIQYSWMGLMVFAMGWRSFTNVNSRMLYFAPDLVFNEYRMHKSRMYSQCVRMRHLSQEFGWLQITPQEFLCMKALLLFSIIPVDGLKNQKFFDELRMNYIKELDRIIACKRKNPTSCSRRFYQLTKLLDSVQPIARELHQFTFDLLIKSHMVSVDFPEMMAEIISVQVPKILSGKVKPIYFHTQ
In short: (§1)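 LNCaP stable pooled lines expressing ARE-firefly luciferase, in charcoal-stripped serum medium, were exposed to compounds; antagonist mode used agonist at 400 pM (WT) or 600 pM (F876L).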

[2] = molecular target: T1, wild-type Androgen Receptor (AR-wt); experiment: LNCaP-AR-wt AG reporter assay (ARE firefly luciferase, agonist mode); conditions: for Emax: read-out: LNCaP-AR-wt AG MAX % Stim
In short: (§2)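 LNCaP cells stably expressing wild-type or F876L AR (puromycin-selected pooled populations) were cultured in charcoal-stripped serum medium. In antagonist mode, agonist challenge was 400 pM for wild-type and 600 pM for F876L.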

[3] = molecular target: T2, F876L mutant Androgen Receptor (AR-F876L) (Homo sapiens, UniProt P10275, F877L); experiment: LNCaP-AR-F876L ANT reporter assay (ARE firefly luciferase, antagonist mode); conditions: for Emax: read-out: LNCaP-AR-F876L ANT MAX % Inh; for IC50: read-out: LNCaP-AR-F876L ANT pIC50 (converted)
T2 construct: expressed in transfected cells; host or cells: LNCaP (LNCaP F876L)
T2 sequence (P10275 1-920 F877L): T1 sequence (P10275 1-920) with F877L
In short: as §1

[4] = molecular target: T2, F876L mutant Androgen Receptor (AR-F876L); experiment: LNCaP-AR-F876L AG reporter assay (ARE firefly luciferase, agonist mode); conditions: for Emax: read-out: LNCaP-AR-F876L AG MAX % Stim
In short: as §2

[5] = maximum % inhibition of R1881 control response over tested concentration range
[6] = agonist mode, −Log10(EC50 [Molar]), read-out: LNCaP-AR-wt AG pEC50 (converted)
[7] = maximum % stimulation (agonist response) over tested concentration range
[8] = agonist mode, −Log10(EC50 [Molar]), read-out: LNCaP-AR-F876L AG pEC50 (converted)

| Structure (SMILES) | IC50 [1] | Emax [1, 5] | EC50 [2, 6] | Emax [2, 7] | Emax [3, 5] | IC50 [3] | EC50 [4, 8] | Emax [4, 7] | Emax [2] | Emax [4] | Emax [1] | EC50 [2] | Emax [3] | EC50 [4] |
| --- | --- | --- | --- | --- | --- | --- | --- | --- | --- | --- | --- | --- | --- | --- |
| Cc1cc(N2C(=O)C3(CCC3)N(c3ccc(OC4CCS(=O)(=O)CC4)cc3)C2=S)cnc1C#N [Cpd 6, 5-[8-[4-(1,1-dioxothian-4-yl)oxyphenyl]-5-oxo-7-thioxo-6,8-diazaspiro[3.4]octan-6-yl]-3-methyl-pyridine-2-carbonitrile] | 646 nM | 100% | > 15100 nM | 0.4% | 99.5% | 178 nM | > 15100 nM | 0% |  |  |  |  |  |  |
| N#Cc1ncc(N2C(=O)C3(CCC3)N(c3ccc(Oc4cncnc4)cc3)C2=S)cc1C(F)(F)F [Cpd 88, 5-[5-oxo-8-(4-pyrimidin-5-yloxyphenyl)-7-thioxo-6,8-diazaspiro[3.4]octan-6-yl]-3-(trifluoromethyl)pyridine-2-carbonitrile] | 631 nM |  |  |  |  | 138 nM |  |  | 0.7% | 0.7% | 97.2% | > 15100 nM | 87.3% | > 15100 nM |
| COCCCNC(=O)c1ccc(N2C(=S)N(c3cnc(C#N)c(C(F)(F)F)c3)C(=O)C23CCC3)cc1F [Cpd 24, 4-[6-[6-cyano-5-(trifluoromethyl)-3-pyridyl]-5-oxo-7-thioxo-6,8-diazaspiro[3.4]octan-8-yl]-2-fluoro-N-(3-methoxypropyl)benzamide] | 331 nM | 100% | > 15100 nM | 0% | 99.5% | 229 nM | > 15100 nM | 0.1% |  |  |  |  |  |  |
| CCOC(=O)CNC(=O)c1ccc(N2C(=S)N(c3cnc(C#N)c(C(F)(F)F)c3)C(=O)C23CCC3)cc1F [Cpd 41, ethyl 2-[[4-[6-[6-cyano-5-(trifluoromethyl)-3-pyridyl]-5-oxo-7-thioxo-6,8-diazaspiro[3.4]octan-8-yl]-2-fluoro-benzoyl]amino]acetate] | 282 nM | 102% | > 15100 nM | -0.2% | 102% | 186 nM | > 15100 nM | 0.3% |  |  |  |  |  |  |
| Cc1cc(N2C(=O)C3(CCC3)N(c3ccc(C(=O)Nc4ccc(F)cc4)c(F)c3)C2=S)cnc1C#N [Cpd 84, 4-[6-(6-cyano-5-methyl-3-pyridyl)-5-oxo-7-thioxo-6,8-diazaspiro[3.4]octan-8-yl]-2-fluoro-N-(4-fluorophenyl)benzamide] | 912 nM | 87.8% | > 15100 nM | 1% | 91.9% | 479 nM | > 15100 nM | 1.3% |  |  |  |  |  |  |

Continued, in another order:

| IC50 [1] | Emax [1, 5] | EC50 [2, 6] | Emax [2, 7] | Emax [3, 5] | IC50 [3] | EC50 [4, 8] | Emax [4, 7] | Structure (SMILES) | Emax [2] | Emax [4] | Emax [1] | EC50 [2] | Emax [3] | EC50 [4] |
| --- | --- | --- | --- | --- | --- | --- | --- | --- | --- | --- | --- | --- | --- | --- |
| 912 nM | 100% | > 15100 nM |  | 99.6% | 676 nM | > 15100 nM |  | N#Cc1ncc(N2C(=O)C3(CCC3)N(c3cccc(OC(F)(F)F)c3)C2=S)cc1C(F)(F)F [Cpd 97, 5-[5-oxo-7-thioxo-8-[3-(trifluoromethoxy)phenyl]-6,8-diazaspiro[3.4]octan-6-yl]-3-(trifluoromethyl)pyridine-2-carbonitrile] | 0.7% | 1.6% |  |  |  |  |
| 129 nM | 99.7% | > 15100 nM | 2.7% | 98.4% | 12 nM | > 15100 nM | 2.2% | Cc1cc(N2C(=O)C3(CCC3)N(c3ccc(-c4cncc(F)c4)cc3)C2=S)cnc1C#N [Cpd 104, 5-[8-[4-(5-fluoro-3-pyridyl)phenyl]-5-oxo-7-thioxo-6,8-diazaspiro[3.4]octan-6-yl]-3-methyl-pyridine-2-carbonitrile] |  |  |  |  |  |  |
| 562 nM | 89.1% | > 15100 nM | 2.1% | 97.3% | 162 nM | > 15100 nM | 2.4% | N#Cc1ncc(N2C(=O)C3(CCC3)N(c3ccc(Oc4ncccn4)cc3)C2=S)cc1C(F)(F)F [Cpd 107, 5-[5-oxo-8-(4-pyrimidin-2-yloxyphenyl)-7-thioxo-6,8-diazaspiro[3.4]octan-6-yl]-3-(trifluoromethyl)pyridine-2-carbonitrile] |  |  |  |  |  |  |
| 537 nM | 98.5% | > 15100 nM | 1.1% | 98.6% | 302 nM | > 15100 nM | 1.4% | N#Cc1ncc(N2C(=O)C3(CCC3)N(c3ccc(OCCN4CCCCC4)cc3F)C2=S)cc1C(F)(F)F [Cpd 91, 5-[8-[2-fluoro-4-[2-(1-piperidyl)ethoxy]phenyl]-5-oxo-7-thioxo-6,8-diazaspiro[3.4]octan-6-yl]-3-(trifluoromethyl)pyridine-2-carbonitrile] |  |  |  |  |  |  |
| 380 nM | 101% | > 15100 nM | 0.1% | 98.9% | 219 nM | > 15100 nM | 0.5% | N#Cc1ncc(N2C(=O)C3(CCC3)N(c3ccc(C(=O)NCc4cnccn4)c(F)c3)C2=S)cc1C(F)(F)F [Cpd 54, 4-[6-[6-cyano-5-(trifluoromethyl)-3-pyridyl]-5-oxo-7-thioxo-6,8-diazaspiro[3.4]octan-8-yl]-2-fluoro-N-(pyrazin-2-ylmethyl)benzamide] |  |  |  |  |  |  |
| 1100 nM | 100% | > 15100 nM | 0.2% | 100% | 269 nM | > 15100 nM | -0.4% | Cc1cc(N2C(=O)C3(CCC3)N(c3ccc(OC4CCN(C)CC4)cc3)C2=S)cnc1C#N [Cpd 4, 3-methyl-5-[8-[4-[(1-methyl-4-piperidyl)oxy]phenyl]-5-oxo-7-thioxo-6,8-diazaspiro[3.4]octan-6-yl]pyridine-2-carbonitrile] |  |  |  |  |  |  |
| 302 nM | 99.7% | > 15100 nM | 2.2% | 90.5% | 437 nM | > 15100 nM | 6.2% | CS(=O)(=O)N1CCC(Oc2ccc(N3C(=S)N(c4cnc(C#N)c(C(F)(F)F)c4)C(=O)C34CCC4)cc2)CC1 [Cpd 122, 5-[8-[4-[(1-methylsulfonyl-4-piperidyl)oxy]phenyl]-5-oxo-7-thioxo-6,8-diazaspiro[3.4]octan-6-yl]-3-(trifluoromethyl)pyridine-2-carbonitrile] |  |  |  |  |  |  |
